Source: PubChem BioAssay (NCI)
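Where inhibition never reached the appropriate level, the endpoint shown equals the highest concentration tested. Otherwise, values were interpolated linearly from a five-concentration, 48-hour dose response in 96-well plates. Abbreviation: GI50, concentration required for 50% inhibition of growth. Definition used: TGI = concentration required for complete inhibition of growth.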

Experiments:
Assay in all cases: NCI anticancer screen, dose series, 48 h
[1] = test system: HCT-116 colon
[2] = test system: MOLT-4 leukemia
[3] = test system: HCT-15 colon
[4] = test system: SN12C renal
[5] = test system: TK-10 renal
[6] = test system: OVCAR-5 ovarian
[7] = test system: MDA-MB-231 breast
[8] = test system: SNB-75 CNS
[9] = test system: SF-268 CNS
[10] = test system: SW-620 colon
[11] = test system: M14 melanoma
[12] = test system: UACC-257 melanoma
[13] = test system: A498 renal
[14] = test system: 786-0 renal
[15] = test system: OVCAR-4 ovarian
[16] = test system: RXF 393 renal
[17] = test system: OVCAR-8 ovarian
[18] = test system: NCI-H522 lung
[19] = test system: HOP-62 NSCLC
[20] = test system: LOX IMVI melanoma
[21] = test system: ACHN renal
[22] = test system: HL-60(TB) leukemia
[23] = test system: SNB-19 CNS
[24] = test system: BT-549 breast
[25] = test system: SR leukemia
[26] = test system: SF-539 CNS
[27] = test system: MDA-MB-435
[28] = test system: HS 578T breast
[29] = test system: SF-295 CNS
[30] = test system: HOP-92 NSCLC
[31] = test system: CCRF-CEM leukemia
[32] = test system: RPMI-8226 leukemia
[33] = test system: SK-MEL-28 melanoma
[34] = test system: DU-145 prostate
[35] = test system: SK-MEL-5 melanoma
[36] = test system: SK-MEL-2 melanoma
[37] = test system: HCC-2998 colon
[38] = test system: UO-31 renal
[39] = test system: CAKI-1 renal
[40] = test system: HT29 colon
[41] = test system: MCF7 breast
[42] = test system: UACC-62 melanoma
[43] = test system: OVCAR-3 ovarian
[44] = test system: T-47D breast
[45] = test system: SK-OV-3 ovarian
[46] = test system: U251 CNS
[47] = test system: KM12 colon
[48] = test system: PC-3 prostate
[49] = test system: A549 NSCLC
[50] = test system: IGROV1 ovarian
[51] = test system: K-562 leukemia
[52] = test system: NCI-H460 lung
[53] = test system: EKVX NSCLC
[54] = test system: COLO 205 colon
[55] = test system: MALME-3M melanoma
[56] = test system: NCI-H226 lung
[57] = test system: NCI/ADR-RES ovarian
[58] = test system: NCI-H23 lung

C#CC(=O)N(c1ccc(OC)cc1OC)C(C(=O)NCC(=O)OCC)c1cccs1 (stereo unspecified)
GI50 [1]: 1580 nM | TGI [1]: 3420 nM | GI50 [2]: 375 nM | TGI [2]: 1950 nM | GI50 [3]: 759 nM | TGI [3]: 2390 nM | GI50 [4]: 2210 nM | TGI [4]: 16500 nM | GI50 [5]: 3960 nM | TGI [5]: 10700 nM | GI50 [6]: 574 nM | TGI [6]: 2330 nM | GI50 [7]: 173 nM | TGI [7]: 1140 nM | GI50 [8]: 152 nM | TGI [8]: 399 nM | GI50 [9]: 326 nM | TGI [9]: 1170 nM | GI50 [10]: 1270 nM | TGI [10]: 3050 nM | GI50 [11]: 1880 nM | TGI [11]: 4540 nM | GI50 [12]: 3290 nM | TGI [12]: 13000 nM | GI50 [13]: 215 nM | TGI [13]: 541 nM | GI50 [14]: 19.1 nM | TGI [14]: 38.9 nM | GI50 [15]: 1750 nM | TGI [15]: 3970 nM | GI50 [16]: 271 nM | TGI [16]: 1010 nM | GI50 [17]: 970 nM | TGI [17]: 17900 nM | GI50 [18]: 83.1 nM | TGI [18]: 258 nM | GI50 [19]: 436 nM | TGI [19]: 2280 nM | GI50 [20]: < 12.5 nM | TGI [20]: < 18.5 nM | GI50 [21]: 114 nM | TGI [21]: 1250 nM | GI50 [22]: 18.7 nM | TGI [22]: 38.7 nM | GI50 [23]: 2420 nM | TGI [23]: 8080 nM | GI50 [24]: 318 nM | TGI [24]: 1190 nM | GI50 [25]: 22 nM | TGI [25]: 52.8 nM | GI50 [26]: 56.7 nM | TGI [26]: 110 nM | GI50 [27]: 3800 nM | TGI [27]: 16200 nM | GI50 [28]: 444 nM | TGI [28]: 3260 nM | GI50 [29]: 183 nM | TGI [29]: 362 nM | GI50 [30]: 31.3 nM | TGI [30]: 110 nM | GI50 [31]: 27.7 nM | TGI [31]: 81 nM | GI50 [32]: 44.9 nM | TGI [32]: 193 nM | GI50 [33]: 2260 nM | TGI [33]: 6030 nM | GI50 [34]: 436 nM | TGI [34]: 4020 nM | GI50 [35]: 8820 nM | TGI [35]: 21300 nM | GI50 [36]: 11000 nM | TGI [36]: 26200 nM | GI50 [37]: 4980 nM | TGI [37]: 17700 nM | GI50 [38]: 16.7 nM | TGI [38]: 33.9 nM | GI50 [39]: 187 nM | TGI [39]: 901 nM | GI50 [40]: 241 nM | TGI [40]: 610 nM | GI50 [41]: 2040 nM | TGI [41]: 9100 nM | GI50 [42]: 1470 nM | TGI [42]: 5810 nM | GI50 [43]: 160 nM | TGI [43]: 528 nM | GI50 [44]: 2010 nM | TGI [44]: 5100 nM | GI50 [45]: 1820 nM | TGI [45]: 3400 nM | GI50 [46]: 445 nM | TGI [46]: 1260 nM | GI50 [47]: 372 nM | TGI [47]: 2240 nM | GI50 [48]: 871 nM | TGI [48]: 7880 nM | GI50 [49]: 5560 nM | TGI [49]: 31700 nM | GI50 [50]: 30 nM | TGI [50]: 97.9 nM | GI50 [51]: 594 nM | TGI [51]: 2960 nM | GI50 [52]: 717 nM | TGI [52]: 6840 nM | GI50 [53]: 260 nM | TGI [53]: 1320 nM | GI50 [54]: 1810 nM | TGI [54]: 3740 nM | GI50 [55]: 66 nM | TGI [55]: 164 nM | GI50 [56]: 11300 nM | TGI [56]: 38000 nM | GI50 [57]: 177 nM | TGI [57]: 813 nM | GI50 [58]: 257 nM | TGI [58]: 1070 nM
